Data on 18 molecules can be found in patent EP0560267B1, “Isosteric antiherpes peptide derivatives” (BOEHRINGER INGELHEIM (CANADA) LTD., priority 1992, dated 1993).

Usually IC50 stands for the concentration needed to halve the response being measured. Read a low IC50 as greater potency. The term EC50 denotes the midpoint of the concentration-response curve.

Like-named read-outs stand apart in the source and are kept apart here.

The target in experiment [1] is T1, HSV-1 ribonucleotide reductase (Human herpesvirus 1, UniProt P08543).
T1 construct: HSV-1 ribonucleotide reductase (partially purified) was obtained from quiescent BHK-21/C13 cells infected with strain F HSV-1 virus; made in house; host or cells: quiescent BHK-21/C13 cells infected with HSV-1 strain F (virus-encoded enzyme, partially purified)
T1 sequence (P08543 whole entry): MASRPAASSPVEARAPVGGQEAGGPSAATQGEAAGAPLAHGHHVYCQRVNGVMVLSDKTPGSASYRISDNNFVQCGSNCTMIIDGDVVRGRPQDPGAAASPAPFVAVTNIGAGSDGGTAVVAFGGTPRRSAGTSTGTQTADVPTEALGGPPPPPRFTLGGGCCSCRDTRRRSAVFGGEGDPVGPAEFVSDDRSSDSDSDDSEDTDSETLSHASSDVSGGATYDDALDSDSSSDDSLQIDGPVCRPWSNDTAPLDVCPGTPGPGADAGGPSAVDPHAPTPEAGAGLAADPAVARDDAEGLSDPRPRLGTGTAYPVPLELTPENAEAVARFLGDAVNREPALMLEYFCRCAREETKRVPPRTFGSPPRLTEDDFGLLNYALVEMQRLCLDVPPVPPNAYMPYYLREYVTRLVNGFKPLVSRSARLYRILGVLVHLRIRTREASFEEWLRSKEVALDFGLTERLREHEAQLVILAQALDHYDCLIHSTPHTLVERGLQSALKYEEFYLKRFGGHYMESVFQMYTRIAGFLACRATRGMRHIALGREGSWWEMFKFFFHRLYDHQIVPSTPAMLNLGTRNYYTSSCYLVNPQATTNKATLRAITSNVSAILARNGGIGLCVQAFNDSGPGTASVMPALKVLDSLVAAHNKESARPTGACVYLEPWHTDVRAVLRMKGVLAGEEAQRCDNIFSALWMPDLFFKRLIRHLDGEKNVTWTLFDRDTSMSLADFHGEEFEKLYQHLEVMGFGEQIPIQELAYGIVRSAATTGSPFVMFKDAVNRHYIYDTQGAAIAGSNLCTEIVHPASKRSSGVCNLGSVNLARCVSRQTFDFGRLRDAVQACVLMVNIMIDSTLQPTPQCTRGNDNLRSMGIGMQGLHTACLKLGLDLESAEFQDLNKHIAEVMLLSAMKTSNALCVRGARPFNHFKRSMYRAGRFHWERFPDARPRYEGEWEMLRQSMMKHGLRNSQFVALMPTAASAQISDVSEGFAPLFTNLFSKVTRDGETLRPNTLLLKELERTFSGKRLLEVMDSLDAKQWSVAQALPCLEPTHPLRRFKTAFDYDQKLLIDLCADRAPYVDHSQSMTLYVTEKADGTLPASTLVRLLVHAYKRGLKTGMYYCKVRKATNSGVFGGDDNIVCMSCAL
Briefly: Inhibition of Herpes Simplex Virus (HSV-1) ribonucleotide reductase. The experiment is classed as biochemical. The text has this: Inhibition of Herpes Simplex Virus (HSV-1) Ribonucleotide Reductase
• a) Preparation of Enzyme HSV-1 ribonucleotide reductase (partially purified) was obtained from quiescent BHK-21/C13 cells infected with strain F HSV-1 virus at 10 plaque forming units/cell as described by E.A. Cohen et al., J. Gen. Virol., 66, 733 (1985). • b) Assay and Results for Exemplified Peptides By following the procedure described by P. Gaudreau et al., J. Biol, Chem., 262, 12413 (1987), the assay results listed in the following Table I were obtained. The assay result for each exemplified compound of formula 1 is expressed as the concentration of the compound producing 50% of the maximal inhibition (IC50) of enzyme activity. The number of units of the enzyme preparation used in each assay was constant, based on the specific activity of the enzyme preparation. The results are relative to the activity obtained in control experiments without the test compound and represent the mean of four assays that varied less than 10% with each other.

The next experiment concerns HSV-2. In words: Inhibition of Herpes Simplex Virus (HSV-2) replication in cell culture. The experiment is classed as cell-based. As for the experimental part:
Inhibition of Herpes Simplex Virus (HSV-2) Replication in Cell Culture
BHK-21/C13 cells (ATCC CCL 10) are incubated for two days in 150 cm^2 T-flasks (1.5 x 10^6 cells/flask) with alpha-MEM medium (Gibco Canada Inc., Burlington, Ontario, Canada) supplemented with 8% (v/v) fetal bovine serum (FBS, Gibco Canada Inc.). The cells are trypsinized and then transferred to fresh media in a 24 well plate to give 2.5 x 10^5 cells in 750 µL of media per well. The cells are incubated at 37° for a period of 6 h to allow them to adhere to the plate. Thereafter, the cells are washed once with 500 µL of alpha-MEM supplemented with 0.5% (v/v) FBS and then incubated with 750 µL of the same media (low serum) for 3 days. After this period of serum starvation, the low serum medium is removed and the cells are incubated in 500 µL of BBMT for 2 to 3 hours. {BBMT medium is described by P. Brazeau et al., Proc. Natl. Acad. Sci. USA, 79, 7909 (1982).} Thereafter, the cells are infected with HSV-2 (multiplicity of infection = 0.02 PFU/cell) in 100 µL of BBMT medium. (Note: The HSV-2 used was strain HG-52, see Y. Langelier and G. Buttin, J. Gen. Virol., 57, 21 (1981); the virus was stored at -80°.) Following 1 h of virus adsorption at 37°, the media is removed and the cells are washed with BBMT (3 X 250 µL). The cells in each well are incubated with or without (control) appropriate concentrations of the test agent dissolved in 200 µL of BBMT medium. After 29 h of incubation at 37°, the infected cells are harvested by first freezing the plate at -80°, followed by thawing. The cells in each well are scraped off the surface of the well with the help of the melting ice fragments. After complete thawing, the cell suspensions are collected and each well is rinsed with 150 µL of BBMT medium. The viral sample (suspension plus washing) is sonicated gently for 4 min at 4°. Cell debris are removed by centrifugation (1000 times gravity for 10 minutes at 4°). The supernatant is collected and stored at -80° until determination of viral titer.
Viral titration was performed by a modification of the colorimetric assay method of M. Langlois et al., Journal of Biological Standardization, 14, 201 (1986).
More specifically, in a similar manner as described above, BHK-21/C13 cells are trypsinized and transferred to fresh media in a 96 well microtiter plate to give 20,000 cells in 100 µL of media per well. The cells in the prepared plate are incubated at 37° for 2 h. During that time, the viral sample is thawed and sonicated gently for 15 seconds, and log dilutions of the sample are prepared (1/5 sequential: 50 µL of the sample plus 200 µL of BBMT medium, sequential dilutions being done with a multichannel pipette.
On completion of the above 2 hour incubation of the BHK-21/C13 cells, the media is replaced with alpha-MEM medium supplemented with 3% (v/v) FBS. The cells are now ready to be infected with the various sample dilutions of virus. Aliquots (50 µL) of the various dilutions are transferred into the appropriate wells of the plate. The resulting infected cells are incubated for 2 days at 37°. Then 50 µL of a 0.15% (v/v) solution of neutral red dye in Hank's Balanced Salt Solution (pH 7.3, Gibco Canada Inc.) is added to each well. The prepared plate is incubated for 45 min at 37°. Medium from each well is then aspirated and the cells are washed once with 200 µL of Hank's Balanced Salt Solution. […]

Where [2] appears, read: Human alphaherpesvirus 2, Table IV, cell culture assay of example 11, read-out: EC50.
Setting [3] is: Table I, partially purified enzyme from BHK-21/C13 cells infected with strain F HSV-1, mean of four assays.
Setting [4] is: Human alphaherpesvirus 2, BHK21 (C13), 29 h, Table II, BHK-21/C13 cells, HSV-2 strain HG-52, 0.02 PFU/cell, 29 h incubation, read-out: EC50.

The molecule `CCCCC(CC)NC(=O)NC(C(=O)CC(CC(=O)C(C)(C)C)C(=O)NC(C(=O)NCC(C)(C)C)C1(C(=O)O)CCCC1)C(C)(C)C` [(R,S)-EtBuCH-NHC(O) / NHCH2CMe3, (R,S)-EtBuCH-NHC(O)-Tbg-CH2-(R)-CH(CH2C(O)CMe3)C(O)-Asp(cyPn)-NHCH2CMe3] gave an IC50 in experiment [1] (Table IV, assay of example 10) of 0.26 µM. Also, the EC50 with HSV-2 (setting [2]) is 35 µM.
Taken in the same sequence, the figures for `CCCC(CC)NC(=O)NC(C(=O)CC(CC(=O)C(C)(C)C)C(=O)NC(C(=O)NCC(C)(C)C)C1(C(=O)O)CCCC1)C(C)(C)C` [(R,S)-EtPrCH-NHC(O) / NHCH2CMe3, (R,S)-EtPrCH-NHC(O)-Tbg-CH2-(R)-CH(CH2C(O)CMe3)C(O)-Asp(cyPn)-NHCH2CMe3] were 0.23 µM and 35 µM.
Taken in the same sequence, the figures for `CCCCC(CCCC)NC(=O)NC(C(=O)CC(CC(=O)C(C)(C)C)C(=O)NC(C(=O)NCC(C)(C)C)C1(C(=O)O)CCCC1)C(C)(C)C` [Bu2CHNHC(O) / NHCH2CMe3, Bu2CHNHC(O)-Tbg-CH2-(R)-CH(CH2C(O)CMe3)C(O)-Asp(cyPn)-NHCH2CMe3] were 0.53 µM and 65 µM.
With `CCC(CC)NC(=O)NC(C(=O)CC(CC(=O)C(C)(C)C)C(=O)NC(C(=O)NCC(C)(C)C)C1(C(=O)O)CCCC1)C(C)(C)C` [Et2CHNHC(O)-Tbg-CH2-(R)-CH(CH2C(O)-CMe3)C(O)-Asp(cyPn)-NHCH2CMe3], the IC50 in experiment [1] (setting [3]) was found to be 0.23 µM. In the experiment on HSV-2 (setting [4]), the EC50 worked out at 56 µM.
For the molecule `CCC(CC)NC(=O)NC(C(=O)CC(CC(=O)C1CCCC1)C(=O)NC(C(=O)NCC(C)(C)C)C1(C(=O)O)CCCC1)C(C)(C)C` [Et2CHNHC(O)-Tbg-CH2-(R)-CH{CH2C(O)-(cyclopentyl)}C(O)-Asp(cyPn)-NHCH2CMe3], 0.22 µM corresponded to half-maximal inhibition in experiment [1] (setting [3]) (IC50). The molecule further registered an EC50 in the experiment on HSV-2 (Human alphaherpesvirus 2, BHK21 (C13), 29 h) of 50 µM.
In experiment [1] (setting [3]), `CCC(CC)NC(=O)NC(C(=O)CC(CC(=O)N1CCCC1)C(=O)NC(C(=O)NC(CO)CC(C)(C)C)C1(C(=O)O)CCCC1)C(C)(C)C` [Et2CHNHC(O)-Tbg-CH2-(S)-CH{CH2C(O)-(pyrrolidino)}C(O)-Asp(cyPn)-γMeLeucinol] had an IC50 of 0.17 µM. The EC50 with HSV-2 (setting [4]) is 200 µM.
`CCCC(CC)(CCC)NC(=O)NC(C(=O)CC(CC(=O)C(C)(C)C)C(=O)NC(C(=O)NC(CC)C(C)(C)C)C1(C(=O)O)CCCC1)C(C)(C)C` [EtPr2CNHC(O) / NH-(R)-CH(Et)CMe3, EtPr2CNHC(O)-Tbg-CH2-(R)-CH(CH2C(O)CMe3)C(O)-Asp(cyPn)-NH-(R)-CH(Et)CMe3] displayed an IC50 in experiment [1] (Table IV, assay of example 10) of 0.36 µM. In addition, in the experiment with HSV-2 (setting [2]), the EC50 worked out at 6 µM.
For `CCCC(CC)(CCC)NC(=O)NC(C(=O)CC(CC(=O)C(C)(C)C)C(=O)NC(C(=O)NC(C)C(C)(C)C)C1(C(=O)O)CCCC1)C(C)(C)C` [EtPr2CNHC(O) / NH-(R)-CH(Me)CMe3, EtPr2CNHC(O)-Tbg-CH2-(R)-CH(CH2C(O)CMe3)C(O)-Asp(cyPn)-NH-(R)-CH(Me)CMe3] the same measures were 0.41 µM and 10 µM.
For `CCCC(C)(C)NC(=O)NC(C(=O)CC(CC(=O)C(C)(C)C)C(=O)NC(C(=O)NCC(C)(C)C)C1(C(=O)O)CCCC1)C(C)(C)C` [Me2PrCNHC(O) / NHCH2CMe3, Me2PrCNHC(O)-Tbg-CH2-(R)-CH(CH2C(O)CMe3)C(O)-Asp(cyPn)-NHCH2CMe3] the same measures were 0.39 µM and 58 µM.
Consider `CCCC(C)(CCC)NC(=O)NC(C(=O)CC(CC(=O)C(C)(C)C)C(=O)NC(C(=O)NCC(C)(C)CC)C1(C(=O)O)CCCC1)C(C)(C)C` [MePr2CHNHC(O) / NHCH2CMe2Et, MePr2CHNHC(O)-Tbg-CH2-(R)-CH(CH2C(O)CMe3)C(O)-Asp(cyPn)-NHCH2CMe2Et], for which the IC50 in experiment [1] (Table IV, assay of example 10) worked out at 0.36 µM. Besides, the EC50 with HSV-2 (Human alphaherpesvirus 2, Table IV, cell culture assay of example 11) came to 29 µM.
Molecule `CCCC(C)(CCC)NC(=O)N[C@H](C(=O)C[C@@H](CC(=O)C(C)(C)C)C(=O)N[C@H](C(=O)NCC(C)(C)C)C1(C(=O)O)CCCC1)C(C)(C)C` [MePr2CNHC(O) / NHCH2CMe3, MePr2CNHC(O)-Tbg-CH2-(R)-CH(CH2C(O)CMe3)C(O)-Asp(cyPn)-NHCH2CMe3] displayed an IC50 in experiment [1] (Table IV, assay of example 10) of 0.28 µM. In the experiment on HSV-2 (setting [2]), the EC50 worked out at 26 µM.
Taken in the same sequence, the figures for `CCCC(CCC)NC(=O)NC(C(=O)CC(CC(=O)C(C)(C)C)C(=O)NC(C(=O)NC(CC)C(C)(C)C)C1(C(=O)O)CCCC1)C(C)(C)C` [Pr2CHNHC(O) / NH-(R)-CH(Et)CMe3, Pr2CHNHC(O)-Tbg-CH2-(R)-CH(CH2C(O)CMe3)C(O)-Asp(cyPn)-NH-(R)-CH(Et)CMe3] were 0.34 µM and 10 µM.
For `CCCC(CCC)NC(=O)NC(C(=O)CC(CC(=O)C(C)(C)C)C(=O)NC(C(=O)NC(C)CC(C)(C)C)C1(C(=O)O)CCCC1)C(C)(C)C` [Pr2CHNHC(O) / NH-(R)-CH(Me)CH2CMe3, Pr2CHNHC(O)-Tbg-CH2-(R)-CH(CH2C(O)CMe3)C(O)-Asp(cyPn)-NH-(R)-CH(Me)CH2CMe3] the same measures were 0.37 µM and 14 µM.
For `CCCC(CCC)NC(=O)NC(C(=O)CC(CC(=O)C(C)(C)C)C(=O)NC(C(=O)NC(C)C(CC)CC)C1(C(=O)O)CCCC1)C(C)(C)C` [Pr2CHNHC(O) / NH-(R)-CH(Me)CHEt2, Pr2CHNHC(O)-Tbg-CH2-(R)-CH(CH2C(O)CMe3)C(O)-Asp(cyPn)-NH-(R)-CH(Me)CHEt2] the same measures were 0.33 µM and 16 µM.
In turn, `CCCC(CCC)NC(=O)NC(C(=O)CC(CC(=O)C(C)(C)C)C(=O)NC(C(=O)NC(C)C(C)(C)C)C1(C(=O)O)CCCC1)C(C)(C)C` [Pr2CHNHC(O) / NH-(R)-CH(Me)CMe3, Pr2CHNHC(O)-Tbg-CH2-(R)-CH(CH2C(O)CMe3)C(O)-Asp(cyPn)-NH-(R)-CH(Me)CMe3] came in with an IC50 in experiment [1] (Table IV, assay of example 10) of 0.28 µM. Besides, in the experiment with HSV-2 (setting [2]), the EC50 is 14 µM.
Taken in the same sequence, the figures for `CCCC(CCC)NC(=O)NC(C(=O)CC(CC(=O)C(C)(C)C)C(=O)NC(C(=O)NC(CCC)C(C)(C)C)C1(C(=O)O)CCCC1)C(C)(C)C` [Pr2CHNHC(O) / NH-(R)-CH(Pr)CMe3, Pr2CHNHC(O)-Tbg-CH2-(R)-CH(CH2C(O)CMe3)C(O)-Asp(cyPn)-NH-(R)-CH(Pr)CMe3] were 0.43 µM and 15 µM.
For `CCCC(CCC)NC(=O)NC(C(=O)CC(CC(=O)C(C)(C)C)C(=O)NC(C(=O)NC(CO)C(C)(C)C)C1(C(=O)O)CCCC1)C(C)(C)C` [Pr2CHNHC(O) / NH-(S)-CH(CMe3)CH2OH, Pr2CHNHC(O)-Tbg-CH2-(R)-CH(CH2C(O)CMe3)C(O)-Asp(cyPn)-NH-(S)-CH(CMe3)CH2OH] the same measures were 0.23 µM and 48 µM.
Taken in the same sequence, the figures for `CCCC(CCC)NC(=O)NC(C(=O)CC(CC(=O)C(C)(C)C)C(=O)NC(C(=O)NN(C)C(C)(C)C)C1(C(=O)O)CCCC1)C(C)(C)C` [Pr2CHNHC(O) / NH-N(Me)CMe3, Pr2CHNHC(O)-Tbg-CH2-(R)-CH(CH2C(O)CMe3)C(O)-Asp(cyPn)-NH-N(Me)CMe3] were 0.27 µM and 110 µM.
